Data on 85 molecules can be found in a melting point compilation (Tetko et al.; mined from patent text by program, amines drawn as free bases though some values may be those of a salt).

Structures are written as SMILES. A value given as a limit tells only on which side of the number the result lay.

By melting point is commonly meant the temperature of the solid-liquid transition. `CC(=O)c1cc(-c2ccncc2)sc1Oc1ccccc1` gave a melting point of 103 to 105 °C.
The molecule `CN(C)c1ccc(C=CC(=O)c2ccc3c(c2)CCC3)cc1` displayed a melting point of 106 to 108 °C.
`CCCN(CCC)C(=O)Cc1c(-c2ccc(C)cc2)nn2cccnc12` displayed a melting point of 110 to 111 °C.
Molecule `O=Cc1csc2ccc(O)cc12` returned a melting point of 200 °C.
With `O=C(NCc1ccc(Cl)cc1)c1cn(CCN2CCCC2)c2ccc(C#CCO)cc2c1=O`, the melting point lay in the range of 189 to 192 °C.
The result for `CCCCS(=O)(=O)NC(Cc1ccc(N2CCN(CCC3CCN(C(=O)OC(C)(C)C)CC3)C2=O)cc1)C(=O)OC` (stereo not given) reads 124 to 126 °C; that for `CCOP(=O)(OCC)C(Nc1cnccn1)P(=O)(OCC)OCC`, 56 to 59 °C; that for `CNc1c(N)cnn1CCO`, 138 to 140 °C.
Consider `COCCNC(=O)c1cccc(-c2cccc3cc(Cc4cc(F)cc(Cl)c4)sc23)c1F`, for which the melting point lay within 124 to 125 °C.
`CC(=O)c1cccc(C2=C(c3ccc(S(N)(=O)=O)cc3)OC(C)(C)C2=O)c1` yielded a melting point of 217 to 218 °C.
As for `CCN1c2ncc(COc3ccccc3)cc2C(=O)N(C)c2ccc(Cl)nc21`, the melting point lay in the range of 140 to 141 °C.
The same measure for `CC(C)(C)OC(=O)N1CCC2(CC1)CC(=O)N(OCC#N)C2=O`: 138 to 139 °C.
The same measure for `Nc1ccc(Sc2c(NCC=Cc3ccccc3)cc(C(=O)O)cc2S(N)(=O)=O)cc1`: 228 to 232 °C; for `CC(C)(C)OC(=O)NC(Cc1ccccc1)C(=O)NC1N=C(c2ccccc2)c2ccccc2NC1=O` (mixture of isomers): 143 to 153 °C.
In the case of `Cc1oc(-c2ccc(C(F)(F)F)cc2)cc1COc1cccc(C=O)c1`, the melting point fell in the range of 85 to 86 °C.
For `CC(=O)Nc1c(C)nc(N)c(C(=O)NNS(=O)(=O)c2ccccc2)c1C`, the melting point is 216 to 218 °C.
The result for `O=C(O)CCC(NC(=O)c1cccc(-c2ccccc2OC2OC(CO)C(O)C(O)C2O)c1)C(=O)O` (stereo not given) reads 109 to 112 °C.
The same measure for `O=C(CNC(=O)c1nc2ccc(Oc3cccc(C(F)(F)F)c3)cc2cc1OCc1ccccc1)OCc1ccccc1`: 103 to 105 °C; for `c1ccc(C(NCc2ccc(CNC(c3ccccc3)c3ccccc3)cc2)c2ccccc2)cc1`: 92 to 94 °C; for `CN(C)c1nc2cc(NC(=O)c3c(C(=O)N4CC(F)C4)cnn3C)ccn2n1`: 243 to 244 °C.
In the case of `O=C(Cl)c1ccc(-c2nc(C(Cl)(Cl)Cl)nc(C(Cl)(Cl)Cl)n2)cc1`, the melting point is 100 to 101 °C.
As for `CCC(CC)NC(=O)n1nc(Oc2c(Cl)cc(C(F)(F)F)cc2Cl)cc1C`, the melting point was in the range of 65 to 67 °C.
Molecule `O=c1n(-c2ccccc2)nc2n1-c1ccccc1Oc1ccccc1-2` showed a melting point of 176 to 177 °C.
The same measure for `O=S1(=O)N=CN(C2CC2)c2ccc(Br)cc21`: 242 to 244 °C; for `CCOCc1cc2cc(Cl)ccc2oc1=Nc1ccc(OC)cc1`: 136 to 138 °C; for `COCC(=S)Nc1c(Cl)c(C)cc2nc(OC)c(OC)nc12`: 174 to 176 °C.
The same measure for `COc1cc(Nc2c(C#N)cnc3cc(-c4ccc(CN5CCN(C)CC5)cc4)sc23)cc(OC)c1OC`: 189 to 191 °C; for `COC(=O)CCNc1ccccc1CNC(=O)C1Cc2ccccc2N1S(=O)(=O)c1ccc(-c2cccc(C(F)(F)F)c2)cc1` (stereo not given): 60 °C.
For `COc1ccccc1-n1nccc1-c1nn(-c2cccc(C(F)(F)F)c2)ccc1=O`, the melting point is 146 to 147 °C.
In turn, `COC(=O)c1sc(C)c(C)c1OC` displayed a melting point of 37 to 39 °C.
`CC(C(N)=O)c1ccc(N)cc1` (stereo not given) gave a melting point of 120 to 122 °C.
The molecule `Cc1cc(C)c2c(c1Br)CC=C2` gave a melting point of 34 °C.
In the case of `CN(C)n1c(Cl)n[nH]c1=O`, the melting point came to 158 °C.
`CC(C)C(=C(c1ccccc1)c1ccccc1)P(C1CCCCC1)C1CCCCC1`: the melting point lay within 162 to 163 °C.
As for `CC(C)(C)C#CC(O)C#CC(C)(C)C`, the melting point lay in the range of 67 to 70 °C.
The same measure for `C[C@]1(CN2CCN(C(=O)OCc3ccc(OC(F)(F)F)cc3)CC2)Cn2cc([N+](=O)[O-])nc2O1`: 140 °C; for `CCCN(C(=O)CC)c1c(C#N)cnn1-c1ccc(OC(F)(F)F)cc1Cl`: 83 °C.
In turn, `CCOC(=O)C(Cl)=Cc1cc(-n2ncc(C(F)(F)F)cc2=O)ccc1Cl` showed a melting point of 98 to 100 °C.
Molecule `N#CN(c1ccccc1)S(=O)(=O)c1ccccc1` came in with a melting point of 65 to 66 °C.
In turn, `Nc1ccccc1NC(=O)c1ccc(COC(=O)NCc2cccnc2)cc1` came in with a melting point of 139 to 141 °C.
For the molecule `c1ccc2[nH]c(CN3CCOCC3)nc2c1`, the melting point was in the range of 235 to 236 °C.
The result for `Cc1ccc(-c2c(NS(=O)(=O)c3ccc(C(C)(C)C)cc3)ncnc2OCCOc2ncc(SC(C)C)cn2)cc1` reads 162 °C; that for `COc1cc(C(C)=O)ccc1OCCN1CCN(c2nsc3ccccc23)CC1`, 98 to 100 °C; that for `CC(C)(Cc1cccc(Oc2cccc(CC(C)(C)C(=O)O)c2)c1)C(=O)O`, 84 to 85 °C.
With `O=C(O)Cc1c(-c2cccs2)nn(-c2ccccc2)c1-c1cccs1`, the melting point lay within 216 to 218 °C.
For the molecule `CCC(C)c1nn(-c2ccc(C(F)(F)F)cn2)cc1CCCOc1c(CC(=O)O)cccc1OC` (stereo not given), the melting point was in the range of 117 to 118 °C.
`CC(C)(SCC(=O)O)C(NS(=O)(=O)c1ccc(Oc2ccc(F)cc2)cc1)C(=O)O` (stereo not given) displayed a melting point of 69 °C.
In turn, `CCc1ccc(NC(=S)Nc2cc([N+](=O)[O-])ccc2O)cc1` had a melting point of 137 to 138 °C.
For `C=Cc1c(C#N)nn(-c2c(Cl)cc(C(F)(F)F)cc2Cl)c1Cl`, the melting point lay within 69.8 to 70.4 °C.
`Cc1ccc2c(c1)C(C)(Cl)C(=S)N2` (stereo not given): the melting point fell in the range of 185 to 187 °C.
For `Cc1nc(C)c(C(C)(O)c2ccccc2)o1` (stereo not given), the melting point fell in the range of 94.5 to 96 °C.
In the case of `C=C(c1ccccc1)C(c1ccc(F)cc1)C(O)n1ncnc1S` (stereo not given), the melting point is 54 to 58 °C.
The same measure for `O=C(O)C1Cc2cccc([N+](=O)[O-])c2C1` (stereo not given): 140 °C; for `O=C(C1CC1)N1CC[C@@H](Oc2ccc(F)cc2)[C@H](c2ccccc2)C1` (relative stereo): 113 to 115 °C.
Molecule `Nc1ncc(Oc2ccc(Cl)cc2)c(N2CCOCC2)n1` came in with a melting point of 138 to 140 °C.
The same measure for `CCCCCCCCCCCCCCCCCCC1CC(=O)N(c2ccc([N+](=O)[O-])cc2O)C1=O` (stereo not given): 115 to 120 °C; for `CCc1cc2c(cc1OCc1ccccc1)CCC1C2CCC2(C)C(=CCO)CCC12` (stereo not given): 61 to 62 °C.
As for `CCCNC(=O)C1(CCCCN2CCC(NC(=O)OC(C)(C)C)CC2)c2ccccc2-c2ccccc21`, the melting point lay within 118 to 120 °C.
As for `CC1Oc2ccc(CN3CCN(c4nc(-c5ccccc5)ns4)CC3)cc2NC1=O` (stereo not given), the melting point lay within 192 to 221 °C.
The molecule `O=C1N(CC(F)(F)F)C(=NCc2ccc(OC(F)(F)F)cc2)SCN1c1ccccc1` yielded a melting point of 84 to 87 °C.
The molecule `O=C1CCC2=C1C(c1ccc(Cl)c(F)c1)C1=C(CCS1)N2` (stereo not given) displayed a melting point greater than 260 °C.
`CNc1nc(-c2cccc(-c3cncc4ccccc34)c2)c2cc(OC)c(OC)cc2n1` had a melting point of 181 to 183 °C.
The molecule `Fc1ccc(-c2[nH]c(=S)sc2CCCl)cc1` registered a melting point of 176 °C.
Regarding `Oc1nc(Cl)c(Cl)cc1Cl`, the melting point fell in the range of 168 to 170 °C.
The same measure for `CC(C)(C)c1ccc(CN=C2SCN(c3ccccc3)C(=O)N2CC(F)(F)F)cc1`: 90 to 91.5 °C; for `CCCCNS(=O)(=O)c1cc(C(=O)O)cc([N+](=O)[O-])c1Cl`: 199 to 201 °C.
As to `c1cc(CC[C@H]2CNCCN2)ccn1`, the melting point was in the range of 113 to 116 °C.
For `CCOC(=O)C(=O)Nc1c([N+](=O)[O-])cc(Br)c2ccccc12`, the melting point lay in the range of 190 to 191 °C.
`Nc1cc(C#Cc2ccccc2)c(-c2cc([N+](=O)[O-])c(N)cc2C#Cc2ccccc2)cc1[N+](=O)[O-]` had a melting point of 252 to 253 °C.
Turning to `O=C(O)CNC(=O)c1nc(Cl)c2cc(OCc3ccccc3)ccc2c1O`, the melting point is 194 to 196 °C.
The result for `N#Cc1c(SSc2cn(-c3c(Cl)cc(C(F)(F)F)cc3Cl)c(Cl)c2C#N)cn(-c2c(Cl)cc(C(F)(F)F)cc2Cl)c1Cl` reads 220 °C; that for `CCNS(=O)(=O)c1cccc(NC(=O)c2cnn3c(C(F)(F)F)cc(-c4ccc(C(F)(F)F)cc4)nc23)c1`, 207 °C.
In turn, `Cc1ccccc1-c1nc2c(s1)C(S(=O)(=O)Cc1ccccc1)Cc1c(OCC(=O)O)cccc1-2` (stereo not given) gave a melting point of 192 to 193 °C.
The result for `O=C(O)C1CCN(Cc2ccc(Cl)c(Cl)c2)CC1` reads 232 °C; that for `O=C(Nc1ccc(OC(F)(F)F)cc1)N1CC(c2sncc2C(F)(F)F)C(c2ccc(Cl)cc2)=N1` (stereo not given), 101 to 104 °C; that for `N#Cc1cc(N2C(=O)CC(C(F)(F)F)CC2=O)c(F)cc1Cl`, 210 to 212 °C.
As to `CCCc1c(OCCCS(=O)(=O)c2ccc(C(=O)CCC#N)cc2)ccc(C(C)=O)c1O`, the melting point lay in the range of 143 to 144 °C.
As for `O=[N+]([O-])C=C1NCCN1C/C=C\Cl`, the melting point lay in the range of 117 to 118 °C.
With `CCCCOC(=O)c1ccc(C#N)cc1`, the melting point was in the range of 54 to 55 °C.
The same measure for `CCN1C(=O)C(=C(Cc2ccccc2)OC)SC1=S`: 120 to 122 °C; for `CC(=O)N1CCC(C(=O)OC2c3ccccc3C(=O)N2c2ccc3ccc(Cl)nc3n2)CC1` (stereo not given): 101 °C.
The same measure for `COC(=O)c1ccc(N2C(=O)CCC2CN=[N+]=[N-])c([N+](=O)[O-])c1` (stereo not given): 68 to 70 °C; for `O=C(CNC(=O)c1ccc([N+](=O)[O-])c(I)c1)OCc1ccccc1`: 98 to 100 °C; for `Nc1ncccc1OCc1ccccc1C(F)(F)F`: 105 to 110 °C.
`Cc1n[nH]c(C)c1-c1ccc(OC2SCC(O)C(O)C2O)cn1` (stereo not given): the melting point stood at 210 °C.
